In series [1] the test system is patients suffering from impaired fasting glucose, impaired glucose tolerance and abdominal obesity. Nature of the series: Second pilot double-blind placebo-controlled randomized study, Cpd 29 80 mg/day, 28 days. The series is classed as in vivo, human. Particulars: 80 mg/day oral. The protocol:
(§1) 1-[4-methylthiophenyl]-3-[3,5-dimethyl-4-carboxydimethylmethyloxyphenyl]prop-2-en-1-one (Cpd 29 of WO 2004/005233) has been formulated as hard shell capsules containing 5, 10 or 20 mg of the compound. The compound (80 mg) was administered orally once daily for 28 days. The study has been performed in two parallel groups in double-blind conditions: placebo or Cpd 29 of WO 2004/005233.
(§2) The tolerability and safety of once-a-day administrations, as well as the efficacy in improving plasma lipids and glucose homeostasis compared with placebo, were evaluated in two pilot trials using relevant biochemical parameters. The data were used to calculate the percentage of change due to the compound when compared to the placebo after 28 days of treatment.
A second pilot, double-blind, placebo controlled, randomized study has been performed in patients suffering from impaired fasting glucose, impaired glucose tolerance and abdominal obesity for assessing the tolerability and safety of once-a-day administrations of oral doses of Cpd 29 of WO 2004/005233 (at the dose of 80 mg/day), as well as the efficacy on glucose and lipid metabolism.

The subject of series [2] is patients suffering from atherogenic dyslipidaemia and abdominal obesity. Put plainly: First pilot double-blind placebo-controlled randomized study, Cpd 29 80 mg/day, 28 days. It is filed as in vivo, human. The note with it: 80 mg/day oral. The protocol: as §1, §2
A first pilot, double-blind, placebo controlled, randomized study has been performed in patients suffering from atherogenic dyslipidaemia and abdominal obesity for assessing the tolerability and safety of once-a-day administrations of oral doses of Cpd 29 of WO 2004/005233 (at the dose of 80 mg/day), as well as the efficacy on plasma triglycerides and HDL-cholesterol (primary objectives).

The next series concerns ob/ob mice. Put plainly: ob/ob mice, hepatic gene expression by quantitative RT-PCR after 26 days of treatment. Particulars: 26 days daily gavage, Cpd 29 10 and 30 mg/kg/day, Fenofibrate 100 mg/kg/day, Rosiglitazone 10 mg/kg/day. The series is classed as in vivo. On the procedure:
The compounds of the General Formula (I) were tested in a murine model of type II diabetes, the ob/ob mice. Mice were daily orally treated with the Compound 29 of WO 2004/005233 at two different doses (10 and 30 mg/kg/day) and with the prototypical PPARalpha- and PPARgamma-specific reference compounds (Fenofibrate at 100 mg/kg/day and Rosiglitazone at 10 mg/kg/day respectively). After 26 days of treatment, animals were sacrificed and plasma samples and livers were harvested. Hepatic expression of genes that are known to be implicated in the liver inflammation process was evaluated and plasmatic levels of ALAT were measured (Panels A-C). […]
Male ob/ob mice (8 weeks of age) were purchased from Charles River (L'Arbresle, France) and were kept on a 12-hour light/dark cycle at a constant temperature of 20±3° C. After a 1 week acclimation, mice were separated in groups of 8 animals selected such that the distribution of their body weight and their 6 hours fasting glycemia determined before the experiment were uniform. […]
Total RNA was isolated from frozen livers using the NucleoSpin® 96 RNA kit (Macherey Nagel), according to the manufacturer's instructions. […] Quantitative PCR was then carried out using the MyiQ Single-Color Real-Time PCR Detection System (Biorad). […]

The mark [3] stands for this setting: relative to the placebo group, p<0.01.

Regarding “1-[4-methylthiophenyl]-3-[3,5-dimethyl-4-carboxydimethylmethyloxyphenyl]prop-2-en-1-one [Cpd 29]”, the LDL-C result in series [1] is listed as “reduced”. The “plasma triglycerides, change relative to placebo” value in series [1] (p<0.001) is listed as −25%. Moreover, in series [1] (p<0.01), the “HDL-C, change relative to placebo” value is “+9%”; the “fasting insulinemia, change relative to placebo” value was −25%; the “insulin resistance index, HOMA-IR, change relative to placebo” value is −31%; the “liver acute phase inflammation marker haptoglobin” value is listed as “reduction”. Besides, the “reduction of Gamma Glutamyl transpeptidase level” value in series [1] (p<0.01) came to 15%. The “fasting plasma glucose, change relative to placebo” value in series [1] (p<0.05) is recorded as −5%. The “effect on Homocystein (cardiovascular risk factor)” value in series [2] was “lack of effect”. For the same substance, the “reduction of Gamma Glutamyl transpeptidase level” value in series [2] (p<0.001) came to 23%. Moreover, in series [2] (p<0.01), the “liver acute phase inflammation marker fibrinogen” value is listed as “reduction”, the “liver acute phase inflammation marker haptoglobin” value is given as “reduction” and the “reduction of Alanine aminotransferase level” value was 13%. In addition, in series [2] (setting [3]), the “increase in good cholesterol (HDL-C) level” value is listed as 9% and the “reduction of plasma triglycerides” value is given as 21%. The “hepatic expression of TNFalpha” value with ob/ob mice (FIG. 2A) is “inhibited the expression of this cytokine in a dose-response manner”. In addition, the “hepatic expression level of TGFbeta” value with ob/ob mice (FIG. 2B) is “inhibited the expression of this growth factor in a dose-response manner”.

These data come from patent US10722575B2, “Use of 1,3-diphenylprop-2-en-1-one derivatives for treating liver disorders” (GENFIT, priority 2009, dated 2020).
